# Tests used:
# Format in all cases: cell-based
# [1] = test system: human cardiac fibroblasts (HCF); assay: In vitro migration (scratch) assay of HCF; details: 10 × EC50
# Protocol: To assess migrative capabilities of HCF, cells were stained with 1:1000 1,1′-Dioctadecyl-3,3,3′,3′-Tetramethylindotricarbocyanine Iodide (DIR′) dye in FGM-3 for 20 min at 37 °C. Cells were washed with DPBS and seeded into 0.1% gelatine-coated 96-well plates at 30,000 cells per well. […] After 17 h and 24 h, plates were imaged again. Rate of migration was determined using the migrative index (MI).
# [2] = test system: human cardiac fibroblasts (HCF); assay: Caspase-3/7 activation (Caspase-Glo) in HCF; details: within the tested concentration range
# Protocol: As contrast to activity, toxicity of top six similars and lead compounds was determined by a multiplex measurement of caspase activation and membrane integrity (using LDH release and inclusion of the CellTox Green dye). Briefly, HCFs were seeded as before. After 24 h, cells were treated with serial dilutions of compounds with additional 0.1% CellTox™ Green dye (Promega, #G8741). After 24 h incubation, 5 µL medium was removed from each well, mixed with 95 µL LDH Storage buffer (Promega, #J2380) and frozen for later analysis. 95 µL Caspase-Glo® 3/7 reagent (Promega, #G8090) was added to each well, and after 60 min of incubation luminescence was measured in a Synergy HT. Afterwards, micrographs of brightfield and green fluorescence were taken using a Cytation 1 (BioTek) automated microscope maintaining 37 °C and 5% CO2. Wells were manually checked for co-localization of fluorescence signal with cells in brightfield. On the next day, supernatants in LDH Storage buffer were thawed, and 50 µL was mixed with 50 µL of LDH Detection reagent and luminescence was measured after 60 min of incubation. Dose–response curves were determined as described before. To determine toxicity of the top 3 anti-fibrotic similars in hiPS-CM, 20,000 cells/well were seeded, treated and analysed as above, devoid the fluorescent dye steps.
# [3] = test system: human cardiac fibroblasts (HCF); assay: BrdU incorporation, HCF proliferation (first screen); details: Homo sapiens, Cardiac fibroblast, 24 h, read-out: Effective conc. (BrdU), EC50 by BrdU assay
# Protocol: 96-well plates (TPP) were coated with 0.1% gelatine and seeded with 7500 HCFs/well. After 72 h, medium was exchanged with serial dilutions of compounds in FGM-3 + 1.6% DMSO + 1% 5-bromo-2′-deoxyuridine (BrdU, Roche, #11647229001), prepared in additional plates. After 24 h, cells were washed twice with DPBS (Gibco, #14190144) before incubation with anti-BrdU:POD (Roche, #11647229001) for 60 min (RT). Readout was performed by measurement of absorbance at 370 nm + 490 nm in a Synergy HT (BioTek) microplate reader. […] As validation, HCF were seeded as before, but treated with serial dilutions of compounds after 24 h. […] After 60 min of incubation (37 °C, in the dark), absorbance at 450 nm + 630 nm was measured maintaining 37 °C and analysed as described before.
# To assess screening quality, quality acceptance criteria Z′ (Z prime), SW (signal window), S:B (signal-to-background), S:N (signal-to-noise) were determined following. Average Z′ ≥ 0.5 and SW ≥ 2 were required to accept the screening overall, whereas single plates were rejected from analysis if Z′ < 0.3 or SW < 1.
# [4] = test system: human cardiac fibroblasts (HCF); assay: TaqMan Array Human MicroRNA Cards, miRNA deregulation in HCF
# Protocol: PCR amplification of array cards was performed as instructed. After quality control of all real-time qPCRs, cT values were exported and all runs were merged into a single excel file. Recommended baseline correction using relative thresholds to correct for varying reconstitution rates of different Taqman probes was not performed. Low-expressed miRNAs with cT > 32 in more than 1 replicate per treatment were excluded from analysis, before samples were normalized to column mean. Multiple unpaired t tests were performed using GraphPad Prism, deregulations were accepted as discoveries if FDR ≤ 1% (using BKY adjustment). As miRNA identifiers were based on miRbase v14, we converted them to the latest v22 for further analysis using miRBaseConverter. 747 sequences could be converted correctly, while the remaining miRNAs were removed from miRbase due to incorrect annotation (e.g. the sequences of hsa-miR-886-3p and hsa-miR-886-5p are part of VTRNA2-1 [44]) or no evidence of human expression.
# [5] = mean of DMSO minus mean of treatment
smiles,measurement,setting,value
"C[C@]12CC[C@H](O)C[C@H]1CC[C@@H]1[C@@H]2CC[C@]2(C)[C@@H](c3ccc(=O)oc3)CC[C@]12O [Bufalin, bufalin]",HCF migration,[1],nearly complete lack of migration within the first half hour
same,induction of Caspase-3/7,[2],dose-dependent induction of Caspase-3/7
same,EC50,[3],2.1 nM
same,"Mean of treatment, hsa-miR-125a-5p-002198",[4]; cT normalized to column mean,-1.094
same,"Mean of treatment, hsa-miR-132-000457",[4]; cT normalized to column mean,-3.644
same,"Mean of treatment, hsa-miR-146a-000468",[4]; cT normalized to column mean,-6.478
same,"Mean of treatment, hsa-miR-886-3p-002194",[4]; cT normalized to column mean,-0.5419
same,"Difference / ΔCT, hsa-miR-125a-5p-002198",[4]; [5],-1.48
same,"Difference / ΔCT, hsa-miR-132-000457",[4]; [5],1.1
same,"Difference / ΔCT, hsa-miR-146a-000468",[4]; [5],-1.167
same,"Difference / ΔCT, hsa-miR-886-3p-002194",[4]; [5],-2.302
